3 molecules from BindingDB's records for doi:10.1016/j.bmc.2004.09.055 (Crefsip, 2005) can be followed below.

Aspartate--tRNA ligase, sequence (P21889 whole entry): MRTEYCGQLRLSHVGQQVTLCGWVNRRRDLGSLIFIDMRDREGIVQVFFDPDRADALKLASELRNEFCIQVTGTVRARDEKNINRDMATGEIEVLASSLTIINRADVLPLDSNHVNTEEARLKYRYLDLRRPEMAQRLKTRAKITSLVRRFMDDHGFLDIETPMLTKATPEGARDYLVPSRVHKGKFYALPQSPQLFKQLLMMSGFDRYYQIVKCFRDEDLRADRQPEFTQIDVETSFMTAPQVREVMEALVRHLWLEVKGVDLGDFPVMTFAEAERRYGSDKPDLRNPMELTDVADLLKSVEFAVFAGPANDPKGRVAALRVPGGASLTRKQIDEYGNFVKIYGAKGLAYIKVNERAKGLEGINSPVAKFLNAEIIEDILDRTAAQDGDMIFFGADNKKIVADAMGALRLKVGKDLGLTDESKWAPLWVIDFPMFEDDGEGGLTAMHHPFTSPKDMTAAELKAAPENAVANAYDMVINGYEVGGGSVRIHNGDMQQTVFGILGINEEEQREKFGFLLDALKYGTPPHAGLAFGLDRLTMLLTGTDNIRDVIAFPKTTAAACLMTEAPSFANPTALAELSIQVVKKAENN

This test has as its target Aspartate--tRNA ligase (Escherichia coli (strain K12), UniProt P21889). Description: Determination of the Inhibition Type and Constant (Ki). The following applies: pH 7.5; 37 °C. The method, then: The Km and Kappm for the amino acid substrate were first calculated from Lineweaver-Burk plots. The Ki values were calculated from the Kappm vs [I] plot. The Ki values for the inhibitors with respect for the amino acid substrates were determined by measuring the apparent Km for the amino acid in the presence of saturating concentrations of both ATP and tRNA, and of various fixed concentrations of the inhibitor.
Usually Ki stands for the dissociation constant of the complex between target and ligand, obtained from inhibition or displacement. Consider `Nc1ncnc2c1ncn2[C@@H]1O[C@H](COP(=O)(O)OC[C@@H](N)CC(=O)O)[C@@H](O)[C@H]1O` [(3S)-3-amino-4-[({[(2R,3S,4R,5R)-5-(6-amino-9H-purin-9-yl)-3,4-dihydroxyoxolan-2-yl]methoxy}(hydroxy)phosphoryl)oxy]butanoic acid], for which the Ki came out at 45000 nM. For the molecule `Nc1ncnc2c1ncn2[C@@H]1O[C@H](COP(=O)(O)CC(=O)C(N)CC(=O)O)[C@@H](O)[C@H]1O` (stereo partly drawn) [3-amino-5-({[(2R,3S,4R,5R)-5-(6-amino-9H-purin-9-yl)-3,4-dihydroxyoxolan-2-yl]methoxy}(hydroxy)phosphoryl)-4-oxopentanoic acid], the Ki was found to be 123 nM. For the molecule `Nc1ncnc2c1ncn2[C@@H]1O[C@H](COS(=O)(=O)NC(=O)C(N)CC(=O)O)[C@@H](O)[C@H]1O` (stereo partly drawn) [3-amino-4-[({[(2R,3S,4R,5R)-5-(6-amino-9H-purin-9-yl)-3,4-dihydroxyoxolan-2-yl]methoxy}sulfonyl)amino]-4-oxobutanoic acid], the inhibition constant Ki was determined as 15 nM.
